Test results reported in US20080199846A1, “Poultry semen extender” (priority 2007, published 2008).

Tested on: 24 h-stored turkey semen
Test: Fertility evaluation: artificial insemination of hens with 24 h-stored turkey semen
Format: in vivo
Details: for fertility of 24 h-stored semen versus control stored semen: 0.5, 2.5 or 10.0 mg/ml PC, wks 1-7 of egg production
Source text: Materials and Methods. Animals: LargeWhite breeder poults were purchased from a primary breeder and maintained under standard management conditions during the brooding and growing periods. At 28 wk of age, toms were photostimulated by increasing light exposure from a 12:12 to a 14:10 light:dark cycle to initiate semen production. Using the abdominal massage semen collection method (Burrows, W. H., and J. P. Quinn, Poult. Sci., 14: 251-254 (1935)), toms were pre-milked at 30 wk of age and then screened for semen quality at 31 and 32 wk of age prior to being designated to sperm storage treatment groups. At 32 wk of age, hens were photostimulated by increasing the daily light exposure from 6:18 to 14:10 h (light:dark) to initiate ovarian development and egg production. Hens were inseminated on Days 10 and 12 after photostimulation and then once per week for the next 12 wk of egg production. A total of 10 toms and 76 hens were used for each experimental replicate.
Semen Collection, Evaluation and Storage: Semen was collected weekly from toms and evaluated for volume, sperm concentration, sperm viability, and sperm mobility. Fresh semen was aliquoted for the control and 3 sperm treatments. Control semen was extended 1:1 with Beltsville Poultry Semen Extender (BPSE), while treated semen was extended 1:1 with BPSE supplemented with 0.5, 2.5 or 10.0 mg/ml phosphatidylcholine (PC). Extended semen was transferred to 48-well culture plates. Multiwell plates were placed in a room temperature water bath on an orbital shaker (125 rpm) and slowly cooled to 4° C. with lids loosely fitted to ensure air availability during agitation. Semen was maintained under these conditions for 24 h.
Fertility Evaluation: A total of 304 hens (76/replicate) were artificially inseminated weekly with semen stored with 0.5 mg PC/ml (n=19), 2.5 mg PC/ml (n=19), 10 mg PC/ml (n=19) or without PC (control, n=19). An additional set of hens were inseminated weekly with stored semen containing 2.5 mg/ml PC and either 0.5 mM, 5.0 mM, or 50 mM ZnCl2; prior to insemination, semen stored in the presence of ZnCl2 was treated with EDTA to chelate Zn ions and restore sperm motility. The inseminant dose for all treatments was 150×10^6 sperm. This sperm number is less than that typically inseminated for commercial production; however, I desired a system sufficiently sensitive to detect even small changes in fertility due to sperm treatment. Eggs were candled after 7 d of incubation to determine true fertility and allowed to hatch to determine hatchability. Fertility trials were replicated 4 times using different flocks.
Statistical Analysis: Prior to analysis, data were checked to determine if a transformation was necessary. As expected, variables scored as percents (e.g., fertility) required transformation. I used the standard variance stabilizing arcsine transformation, y=arcsine (√(x)), where x represents the data, recorded as a proportion, and y is the scale used in the analysis. This transformation stabilized the variances sufficiently to proceed with an analysis in a mixed models framework. Software for conducting mixed models analyses in non-Gaussian frameworks, e.g., logistic regression, is not yet readily available. The mixed models I developed, estimated using Proc Mixed (SAS Institute, 1999), considered sperm treatment and week of study as fixed factors, with hen as a random factor. In addition, since data were taken from the same individuals repeatedly, thus inducing correlation, I allowed for within-individual time series correlation using an autoregressive structure. To ensure that my sample size and design had sufficient power to accurately determine the effects of the sperm treatments, I did a small simulation study prior to finalizing the design. Power was reassessed once the study was complete, and I report those results below. I used the default REML estimation method in Proc Mixed. […]

| Molecule | fertility rates versus 5.0 or 50 mM ZnCl2 (0.5 mM ZnCl2, semen with 2.5 mg/ml PC, EDTA before insemination, p<0.05) | true fertility of 24 h-stored semen versus other ZnCl2 treatments or control semen (5.0 mM ZnCl2, wks 1-7, p<0.05) | hens producing 100% fertile eggs versus any other stored semen treatment (2.5 mg/ml PC, first 7 wks of egg production, p<0.05) | percentage of hens laying all (100%) fertile eggs versus any other sperm treatment group (2.5 mg/ml PC, wks 2-7, p<0.05) | predictability of fertility versus the other concentrations (10 mg/ml) | fertility rates during egg production (10 mg/ml PC treatment) | fertility rates versus 0.5 or 2.5 mg/ml PC treatments (10 mg/ml PC, at 1, 2 8, 10, 11, and 12 wks, p<0.05) | percentage of hens laying all unfertilized eggs versus any other sperm treatment group (10.0 mg/ml PC, wks 4 and 10, p<0.05) | fertility of 24 h-stored semen versus control stored semen (p<0.05) | fertility of 24 h-stored semen versus control stored semen (p<0.05, listed as phosphatidycholine) | fertility of stored turkey semen (0.5 or 2.5 mg/ml, first 12 wks of egg production) | fertility rates, 0.5 versus 2.5 mg/ml PC treatments (throughout egg production except wks 7 and 12, p>0.05) | fertility of 2.5 mg/ml PC treatment versus 0.5 mg/ml (wks 7 and 12, p<0.05) |
| --- | --- | --- | --- | --- | --- | --- | --- | --- | --- | --- | --- | --- | --- |
| [Cl-].[Cl-].[Zn+2] [ZnCl2] | Higher | higher |  |  |  |  |  |  |  |  |  |  |  |
| phosphatidylcholine [PC] |  |  | more | more | less predictable fertility | varied widely | Lower | more | improved | higher | improved | similar | higher |
